Measurements taken from ChEMBL document CHEMBL1201862, “PubChem BioAssay data set” (2004).
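Where inhibition never reached the appropriate level, the endpoint shown equals the highest concentration tested. Otherwise, values were interpolated linearly from a five-concentration, 48-hour dose response in 96-well plates. GI50 is the concentration that inhibits growth by half.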 Activity calls are given as the source filed them. No stated cut-off is given here; in the data, active = GI50 up to about 1.1 µM and inactive = higher.

Columns and labels:
Experiment in all cases: DTP human tumour cell line panel, 48 h
LOX IMVI = tested on: LOX IMVI
OVCAR-5 = tested on: OVCAR-5
SW-620 = tested on: SW-620
HCT-116 = tested on: HCT-116
DLD-1 = tested on: DLD-1
UACC-62 = tested on: UACC-62
SN12C = tested on: SN12C
KM12 = tested on: KM12
SNB-75 = tested on: SNB-75
NCI-H522 = tested on: NCI-H522
U-251 = tested on: U-251
HOP-62 = tested on: HOP-62
NCI-H226 = tested on: NCI-H226
A498 = tested on: A498

Measured: GI50

OCC(O)C(O)C(O)c1nn(-c2ccc(F)cc2)c2nc3cc(Cl)c(Cl)cc3nc12 (stereo not given)
inactive: LOX IMVI 18.3 µM | OVCAR-5 > 100 µM | SW-620 26.4 µM | HCT-116 24.5 µM | DLD-1 32.7 µM | UACC-62 16.9 µM | SN12C 22.1 µM | KM12 23.3 µM | SNB-75 3.94 µM | NCI-H522 14.9 µM | U-251 29.8 µM | HOP-62 12.7 µM | NCI-H226 24.2 µM

O=C(/C=C/c1c(O)ccc2ccccc12)c1ccccc1Cl
inactive: LOX IMVI 24.2 µM | OVCAR-5 > 100 µM | SW-620 24.2 µM | HCT-116 21.2 µM | DLD-1 31.1 µM | UACC-62 15.8 µM | SN12C 26.7 µM | KM12 38.5 µM | SNB-75 25.3 µM | NCI-H522 26.7 µM | U-251 37.8 µM | HOP-62 76.6 µM | A498 82 µM | NCI-H226 > 100 µM

CCCCCCCCC(=O)NCCCNCCCNC(=O)CCCCCCCC
inactive: LOX IMVI 1.77 µM | OVCAR-5 15.2 µM | SW-620 2.54 µM | HCT-116 5.04 µM | DLD-1 2.93 µM | UACC-62 5.79 µM | SN12C 6.19 µM | KM12 2.01 µM | NCI-H522 5.05 µM | U-251 3.25 µM | HOP-62 13.8 µM | A498 16.9 µM | NCI-H226 17.9 µM

CN(C)c1ccc(/C=C(/C(=O)O)c2csc(-c3nc(/C(=C\c4ccc(N(C)C)cc4)C(=O)O)cs3)n2)cc1
inactive: LOX IMVI 73.8 µM | OVCAR-5 > 100 µM | SW-620 > 100 µM | HCT-116 > 100 µM | DLD-1 > 100 µM | UACC-62 80.9 µM | SN12C > 100 µM | KM12 > 100 µM | SNB-75 > 100 µM | U-251 > 100 µM | HOP-62 > 100 µM | A498 > 100 µM | NCI-H226 > 100 µM

O=C(O)CCNS(=O)(=O)c1ccc(NC(=O)c2ccccc2)cc1
inactive: LOX IMVI > 100 µM | OVCAR-5 > 100 µM | SW-620 > 100 µM | DLD-1 > 100 µM | UACC-62 > 100 µM | SN12C > 100 µM | KM12 > 100 µM | SNB-75 > 100 µM | NCI-H522 > 100 µM | U-251 > 100 µM | A498 > 100 µM

NC1(CCCCCCCCCCC(=O)O)CNCCNCCNCCNC1
inactive: OVCAR-5 16 µM | SW-620 44.8 µM | HCT-116 28.1 µM | DLD-1 40.7 µM | UACC-62 47.6 µM | SN12C 23.8 µM | KM12 48.9 µM | NCI-H522 55.5 µM | HOP-62 23.1 µM | A498 13.7 µM

O=C(Cc1nc2ccccc2s1)NC12CC3CC(CC(C3)C1)C2
inactive: LOX IMVI > 100 µM | SW-620 > 100 µM | HCT-116 > 100 µM | DLD-1 > 100 µM | UACC-62 > 100 µM | SN12C > 100 µM | KM12 > 100 µM | SNB-75 > 100 µM | NCI-H522 > 100 µM | U-251 > 100 µM | HOP-62 > 100 µM | A498 > 100 µM | NCI-H226 > 100 µM

COc1cc(C[P+](c2ccccc2)(c2ccccc2)c2ccccc2)cc(OC)c1OC
inactive: LOX IMVI > 100 µM | OVCAR-5 > 100 µM | SW-620 > 100 µM | HCT-116 > 100 µM | DLD-1 > 100 µM | UACC-62 > 100 µM | SN12C > 100 µM | KM12 > 100 µM | SNB-75 > 100 µM | NCI-H522 > 100 µM | U-251 > 100 µM | HOP-62 > 100 µM | NCI-H226 > 100 µM

CCOC(=O)NC(=O)c1cn(CCN2CCN(C(=O)CNC(=O)CNC(=O)Cn3cc(C(=O)NC(=O)OCC)c(=O)[nH]c3=O)CC2)c(=O)[nH]c1=O
inactive: LOX IMVI > 100 µM | OVCAR-5 > 100 µM | SW-620 > 100 µM | HCT-116 > 100 µM | DLD-1 > 100 µM | UACC-62 > 100 µM | SN12C > 100 µM | KM12 > 100 µM | SNB-75 > 100 µM | NCI-H522 > 100 µM | U-251 > 100 µM | HOP-62 > 100 µM | A498 > 100 µM

Cn1c(=O)c2c(nc3n2CCC(=O)N3)n(C)c1=O
inactive: LOX IMVI > 100 µM | OVCAR-5 > 100 µM | SW-620 > 100 µM | DLD-1 > 100 µM | UACC-62 > 100 µM | SN12C > 100 µM | KM12 > 100 µM | NCI-H522 > 100 µM | U-251 > 100 µM | HOP-62 > 100 µM | A498 > 100 µM | NCI-H226 > 100 µM

CCCCCCCCCCCCSC(=S)c1c(C)[nH]n(-c2ccccc2)c1=O
inactive: LOX IMVI 15.9 µM | OVCAR-5 16.2 µM | SW-620 16.4 µM | DLD-1 2.3 µM | UACC-62 3.52 µM | SN12C 8.28 µM | U-251 2.85 µM | HOP-62 5.16 µM | A498 26.7 µM | NCI-H226 14.9 µM
